{"source": "patent US20060099233A1", "about": "“Granular formulation of neem seed extract and its process thereof” (E.I.D. Parry (India) Limited, priority 2004, published 2006)", "origin": "cited, not measured here", "conditions": "25 days at 29±1° C.", "note": "Read-outs that look alike come from different tables or passages of the source.", "data": [{"compound": "C/C=C(\\C)C(=O)O[C@H]1C[C@@H](OC(C)=O)[C@@]2(C(=O)OC)CO[C@H]3[C@@H](O)[C@@](C)([C@]45O[C@@]4(C)[C@@H]4C[C@H]5O[C@@H]5OC=C[C@@]54O)[C@H]4[C@]1(CO[C@]4(O)C(=O)OC)[C@@H]32", "note": "[azadirachtin A]", "values": [{"measurement": "degradation of azadirachtin A", "setting": "in ethanol and water", "result": "about 85%"}, {"measurement": "degradation of azadirachtin A", "setting": "in methanol and acetone", "result": 50, "unit": "%"}, {"measurement": "degradation of azadirachtin A", "setting": "in methylene chloride, carbon tetrachloride and chloroform", "result": "75-80%"}]}]}
